Results on 28 molecules are retold here after publication PMC5527305, “Prevention of Ophthalmia Neonatorum Caused by Neisseria gonorrhoeae Using a Fatty Acid-Based Formulation” (mBio, 2017).

Data set [1] relates to N. gonorrhoeae strain NCCP11945. Description: Growth inhibition screen on GC solid media containing 1 mM candidate. In kind it is cell-based, Neisseria gonorrhoeae. The conditions noted are these: 1 mM candidate in GC agar media; Yes = strain NCCP11945 did not grow. How it is done:
(§1) To find potential candidates, 37 organic acids, esters, and salts were tested in a two-tiered screening process. These candidates were chosen based on the carbon chain lengths of the fatty acids, the presence or absence of saturation, and modifications to represent a diverse selection of organic acid candidates. The first screen aimed to determine the ability of each compound to inhibit the growth of N. gonorrhoeae strain NCCP11945 at 1 mM in GC solid media (Table 1). This strain was chosen due to its relatively recent isolation, its antibiotic resistance profile, and the availability of a complete genome sequence. Those candidates able to inhibit the growth of N. gonorrhoeae strain NCCP11945 were investigated in a second assay. The second assay tested the ability of each compound to cause at least a 4-log reduction in viable bacteria at 1 mM with a 2-min exposure time (Table 1).
(§2) The well-characterized N. gonorrhoeae NCCP11945 strain ([36]) was used in the screening stage. Eight isolates obtained from Public Health England, representing circulating isolates from various European locations, were used in the log reduction assays. All isolates were cultured for 24 h prior to testing by plating on GC solid medium (Oxoid Limited, Hampshire, United Kingdom) with Kellogg supplements and incubation at 37°C and 5% CO2 ([37]).

Data set [2] shares this test system. As to the kind of experiment: Log reduction assay in GC broth, 2-min exposure. In kind it is cell-based, Neisseria gonorrhoeae. The conditions noted are these: for log reduction at 1000 µM: Neisseria gonorrhoeae, NCCP11945, 2 min, 1 mM, read-out: Log reduction at 1 mM (calculated log reduction in viable bacteria); for log reduction at 1000 µM / Log reduction at 1 mM (calculated log reduction in viable bacteria): maximum score 6 = all cells killed. As to the method:
as §1
(§3) Log reductions were done as described by Bergsson and coworkers ([18]). Briefly, cells were suspended in GC broth (18 g/liter GC base [Oxoid, Limited] with added defined supplements) to an optical density at 520 nm of 0.3, which is approximately equivalent to 10^7 to 10^8 cells per ml ([38]). […] The contents of the tubes were then mixed at room temperature for 2 min and immediately diluted in a 10-fold dilution series to 10^−4. The dilutions were plated by spreading 10 µl on a quarter of a plate; a 100-µl neat solution was also plated. Plates were then incubated at 37°C for 48 h, with all samples plated in duplicate. […] Additional testing at lower concentrations was also done on the eight clinical isolates of European origin.

For the next data set, the system named is bovine RBCs. As to the kind of experiment: Red blood cell (RBC) lysis assay. It counts as cell-based. The conditions noted are these: H50 = concentration to lyse 50% of RBCs; MBC from Table 1. As to the method:
Whole bovine blood was obtained from a local slaughter house (ABP), adding 90 ml blood to 10 ml 110 mM trisodium citrate anticoagulant. RBCs were isolated the same day. The RBCs were washed by three repeats of centrifugation (1,500 × g for 10 min) and resuspension in phosphate-buffered saline (PBS) with 10 mM glucose (PBSG). Testing was done following the guidelines of the European Union Reference Laboratory for alternatives to animal testing (EURL-ECVAM) ([22]). The organic acids were solubilized in dimethyl sulfoxide (DMSO) and diluted to a maximum DMSO concentration of 10%. In a 2-ml centrifuge tube, 750 µl of the sample was added to 250 µl RBCs. Controls used in the assay were a complete lysis control (deionized water) and a fragility control (PBSG–10% DMSO). Samples were shaken at room temperature for 1 h and then centrifuged at 14,000 × g for 2 min. An aliquot of 750 µl of the supernatant was taken and its absorbance at 451 nm measured.

For data set [3], the system named is nine gonococcal isolates (strain NCCP11945 and eight isolates from Public Health England). Description: Minimum bactericidal concentration by log reduction against nine gonococcal isolates. In kind it is cell-based, Neisseria gonorrhoeae. The settings on record: for Killing of all gonococcal cells for all isolates: 1 mM; for MBC: lowest concentration giving mean log reduction above 4 from a 2-min exposure.
Excerpt: The seven candidates were further tested against nine gonococcal isolates, including strain NCCP11945 and eight isolates from Public Health England, to find their minimal bactericidal concentration (MBC). This was defined as the lowest concentration tested to give an average 4-log10 reduction in bacterial count after a 2-min exposure. […] Any candidate that killed all gonococcal cells in the cell suspension was given a log reduction score of six.
as §2, §3

The test system of data set [4] is gonococcal cells (isolate NCCP 11945). Description: Log reduction in artificial tear fluid with or without calcium chloride. In kind it is cell-based, Neisseria gonorrhoeae. As to the method:
The antigonococcal properties of the seven selected fatty acids were tested in artificial tear fluid, which contained calcium chloride. The addition of 1 mM lauric acid, tridecanoic acid, or sodium dodecanoate gave no reduction in bacterial cell number after exposure, in contrast to the results seen when they were tested in culture medium (Fig. 2). […] This was most likely due to the negative effect of calcium on the aqueous solubility of these candidates.
Artificial tear fluid was made as described by Mirejovsky and others ([39]) with or without calcium chloride. […] As with the previous log reductions, 10^7 gonococcal cells (isolate NCCP 11945) were suspended in GC broth. The cell suspension was centrifuged to remove the culture medium, and the bacteria were resuspended in the tear fluid. This was then added to the concentrated organic acid candidates. The cells were then enumerated again after 2 min of exposure to estimate any reduction in cell number due to the exposure to the organic acid.

The subject of the next data set is bovine cornea. As to the kind of experiment: Bovine corneal opacity and permeability (BCOP) test. As to the method: Bovine eyes were collected from a local slaughter house (ABP, Guildford, Surrey, United Kingdom) and were transported in cold saline solution for testing at the laboratory. Each eye was first visually examined for signs of damage before use. The test was conducted as detailed by Abdelkader and coworkers ([21]). The exposure time of the test substances was 30 s. The selected bactericidal compounds were tested at 1 mM in saline solution, with a corresponding vehicle control (1% ethanol–saline solution) also performed. […] The test area of the cornea was then washed with 10 ml saline solution. Corneal damage to the test area was assessed by fluorescein staining and examination under a cobalt blue filter. Pathological scoring based on opacity, epithelial integrity, and epithelial detachment was done in accordance with previous publications ([19]). Each of the seven lead candidates was tested in triplicate, and each test was performed on a separate day using a different batch of eyeballs. Corneal histology was done as outlined by Abdelkader and coworkers ([21]) by evaluating the damage to the epithelial layer and stroma of the cornea after hematoxylin and eosin staining.

Each structure is given as a SMILES string. Values after ≈ are worked out from the molar mass of the structure shown. Like-named read-outs stand apart in the source and are kept apart here.

Take `CCCCCCCC(=O)OCC(O)CO` (racemic) [1-octanoyl-rac-glycerol]: the Growth inhibition entry in data set [1] is listed as “Yes”. Besides, in data set [2], the “Log reduction at 1 mM: at least a 4-log reduction in viable bacteria (Yes/No)” value (“Log reduction at 1 mM … (Yes/No)” for short) is given as “No” and the log reduction at 1000 µM was 0.

For `O=C(O)CCCCC(=O)O` [Adipic acid], in data set [1], the Growth inhibition result was “No”.

Consider `CCCCC/C=C\C/C=C\C/C=C\C/C=C\CCCC(=O)O` [Arachidonic acid], for which the Growth inhibition result in data set [1] is on record as “Yes”.

Turning to `O=C(O)CCCCCCCC(=O)O` [Azelaic acid], the Growth inhibition entry in data set [1] is listed as “No”.

As to `CCCCCCCCCC(=O)O` [Capric acid/decanoic acid], the Growth inhibition entry in data set [1] is “No”.

For the molecule `CCCCCCCC(=O)O` [Caprylic/octanoic acid], the Growth inhibition entry in data set [1] is recorded as “No”.

Take `CCCCCCCC/C=C/CCCCCCCC(=O)O` [Elaidic acid]: in data set [1], the Growth inhibition entry is recorded as “Yes”. In data set [2], the “Log reduction at 1 mM … (Yes/No)” value is “No” and the log reduction at 1000 µM was 0.5.

Turning to `CCCCCCCC/C=C\CCCCCCCCCCCC(=O)O` [Erucic acid], the Growth inhibition entry in data set [1] is “Yes”. Besides, in data set [2], the “Log reduction at 1 mM … (Yes/No)” value is “No” and the log reduction at 1000 µM was 0.

In the case of `CCCCCCCCCCCCCCCCC(=O)O` [Heptadecylic acid], the Growth inhibition entry in data set [1] is recorded as “No”.

`CCCCCCCCCCCCCC(=O)OC(C)C` [Isopropyl myristate]: the Growth inhibition result in data set [1] is given as “No”.

On to `CCCCCCCCCCCCCCCC(=O)OC(C)C` [Isopropyl palmitate], for which the Growth inhibition result in data set [1] is on record as “No”.

For the molecule `CCCCC/C=C\C/C=C\CCCCCCCC(=O)O` [Linoleic acid], the Growth inhibition entry in data set [1] is recorded as “Yes”. Moreover, in data set [2], the “Log reduction at 1 mM … (Yes/No)” value was “No” and the log reduction at 1000 µM is 1.6.

As to `CCCCCCCCCCCCCC(=O)OCC(O)CO` (centres unmarked) [Monomyristin], the Growth inhibition entry in data set [1] is recorded as “Yes”. Besides, in data set [2], the “Log reduction at 1 mM … (Yes/No)” value is recorded as “No” and the “Log reduction at 1 mM (calculated log reduction in viable bacteria)” value is recorded as 0.6 log10.

Regarding `CCCCCCCCCCCCCC(=O)O` [Myristic acid], in data set [1], the Growth inhibition result is “Yes”. Moreover, in data set [2], the “Log reduction at 1 mM … (Yes/No)” value is on record as “No” and the log reduction at 1000 µM was 1.5.

For the molecule `CCCCCCCC/C=C\CCCCCCCC(=O)O` [Oleic acid], in data set [1], the Growth inhibition result was “Yes”. Further, in data set [2], the “Log reduction at 1 mM … (Yes/No)” value is listed as “No” and the log reduction at 1000 µM was 1.

For `CCCCCCCCCCCCCCCC(=O)O` [Palmitic acid], in data set [1], the Growth inhibition entry is given as “No”.

For orientation: MBC means the smallest concentration meeting the test's criterion for killing. Regarding `CCCCCC/C=C\CCCCCCCC(=O)O` [Palmitoleic acid], the “H50 concentration relative to MBC” value in the data set on bovine RBCs is listed as “lower than their minimum bactericidal concentration”. The Growth inhibition entry in data set [1] is “Yes”. Further, in data set [2], the “Log reduction at 1 mM … (Yes/No)” value is “Yes” and the log reduction at 1000 µM was greater than 6. Also, the “Killing of all gonococcal cells for all isolates” value in data set [3] (2 min) is “did not”. Further, the MBC in data set [3] (Neisseria gonorrhoeae, 2 min, read-out: MBC) worked out at 500 µM (≈ 127 µg/mL).

`CCCCCCCCCCCCCCC(=O)O` [Pentadecylic acid]: the Growth inhibition entry in data set [1] is on record as “Yes”. In addition, in data set [2], the “Log reduction at 1 mM … (Yes/No)” value is listed as “No” and the “Log reduction at 1 mM (calculated log reduction in viable bacteria)” value is recorded as 0.5 log10.

Consider `O=C(O)CCCCCC(=O)O` [Pimelic acid], for which the Growth inhibition result in data set [1] was “No”.

For the molecule `CCCCCC[C@@H](O)C/C=C\CCCCCCCC(=O)O` [Ricinoleic acid], the Growth inhibition entry in data set [1] is “Yes”. In addition, in data set [2], the “Log reduction at 1 mM … (Yes/No)” value is “No” and the “Log reduction at 1 mM (calculated log reduction in viable bacteria)” value is 3.5 log10.

For the molecule `O=C(O)CCCCCCCCC(=O)O` [Sebacic acid], in data set [1], the Growth inhibition entry is listed as “No”.

For `CCCCCCCCCCCC(=O)[O-].[Na+]` [Sodium dodecanoate], the Growth inhibition result in data set [1] is listed as “Yes”. Besides, in data set [2], the “Log reduction at 1 mM … (Yes/No)” value is “Yes” and the “Log reduction at 1 mM (calculated log reduction in viable bacteria)” value was greater than 6 log10. Also, in data set [3] (2 min), the “Killing of all gonococcal cells for all isolates” value was “killed all gonococcal cells for all isolates”. Besides, the MBC in data set [3] is 750 µM. The “Reduction in bacterial cell number in artificial tear fluid containing calcium chloride” value in data set [4] (1 mM candidate, 2 min, with calcium) is recorded as “no reduction”. The “Antigonococcal properties in tear fluid made without calcium chloride” value in data set [4] (1 mM candidate, 2 min, without calcium) is listed as “completely restored”. For the same molecule, the “Effect of calcium in artificial tear fluid on antimicrobial effect” value in data set [4] (calcium 1 mM, Fig. 2) is “inactivated”. Further, the “Mean cumulative BCOP score” value with bovine cornea (1 mM in saline solution, 30 s exposure, triplicate) was “lower than 0.5”. Also, the “Fluorescein staining of cornea” value with bovine cornea (1 mM, around rubber application ring) is on record as “any sign of fluorescein staining”. Also, the BCOP irritancy classification result with bovine cornea (candidates 1 mM in saline, controls 0.5 M NaOH, 100% acetone, 30 s exposure) is listed as “nonirritants”.

Take `CCCCCCCCCCCCCC(=O)[O-].[Na+]` [Sodium myristate]: in data set [1], the Growth inhibition result is listed as “Yes”. In addition, in data set [2], the “Log reduction at 1 mM … (Yes/No)” value is given as “No” and the “Log reduction at 1 mM (calculated log reduction in viable bacteria)” value is listed as 0.5 log10.

Regarding `C/C=C/C=C/C(=O)O` [Sorbic acid], the Growth inhibition result in data set [1] is “No”.

Take `CCCCCCCCCCCCCCCCCC(=O)O` [Stearic acid]: the Growth inhibition result in data set [1] is reported as “No”.

`O=C(O)CCCCCCC(=O)O` [Suberic acid]: in data set [1], the Growth inhibition entry is recorded as “No”.

Regarding `O=C(O)CCC(=O)O` [Succinic acid], in data set [1], the Growth inhibition result was “No”.

Turning to `CCCCCCCCCCC(=O)O` [Undecanoic acid], the Growth inhibition result in data set [1] is reported as “Yes”. In data set [2], the “Log reduction at 1 mM … (Yes/No)” value is “No” and the log reduction at 1000 µM is 0.2.
